Data on seven compounds can be found in PubChem BioAssay (NCI).

SMILES strings stand for the structures.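 The compound was tested at five concentrations on cells cultured in 96-well plates, with a 48-hour exposure period. GI50 is the concentration that inhibits growth by half. At the TGI there is no net growth.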

Common to all, as to experiment: NCI tumour cell line growth inhibition, 48 h
In assay [1] the test system is BT-549 breast.
Assay [2] relates to HL-60(TB) leukemia.
The subject of assay [3] is IGROV1 ovarian.
In assay [4] the test system is K-562 leukemia.
The test system of assay [5] is MDA-MB-231 breast.
Assay [6] concerns SF-295 CNS.
Assay [7] relates to SF-539 CNS.
Assay [8] deals with SR leukemia.
The test system of assay [9] is UACC-257 melanoma.
Assay [10] relates to UACC-62 melanoma.

In the case of `CCN(CC)CCCN1C(=O)c2c(c(C)c3c(oc4cc(O)ccc43)c2C)C1=O`, the GI50 in assay [1] was 14.2 µM; in assay [2] it was 1.69 µM; in assay [3], 1.74 µM; in assay [4], 0.188 µM; in assay [5], 1.81 µM; in [6], 1.84 µM. For the same compound, the GI50 was 1.77 µM in assay [7], 1.58 µM in assay [8], 1.81 µM in assay [9] and 1.92 µM in assay [10]. Moreover, the TGI in assay [1] stood at 29.6 µM; in assay [2] it was 3.67 µM; in assay [3], 3.4 µM; in [4] it was 0.464 µM; in assay [5] it was 3.47 µM; in assay [6] it was 3.32 µM. Moreover, the TGI turned out to be 3.18 µM in assay [7], 3.99 µM in assay [8], 3.62 µM in assay [9] and 3.44 µM in assay [10].

With `O=c1[nH]cnc2c1nnn2[C@@H]1O[C@H](CO)[C@@H](O)[C@H]1O`, the GI50 in assay [1] was 9.81 µM; in assay [2], 1.56 µM; in assay [3] it was 2.57 µM; in [4], 3.7 µM; in assay [5], 7.68 µM; in [7] it was 7.66 µM. Further, the GI50 was 4.77 µM in assay [8], 28.6 µM in [9] and 5.75 µM in [10]. Also, the TGI in assay [1] is over 100 µM; in assay [2], 39.5 µM; in [3] it was 58.1 µM; in [4] it was over 100 µM; in [5], over 100 µM; in [7], over 100 µM. Moreover, the TGI in assay [8] was over 100 µM; in assay [9], over 100 µM; in assay [10] it was 84.4 µM.

For `CC(=O)O[C@H]1C(=O)[C@@]2(C)[C@H]([C@H](OC(=O)c3ccccc3)[C@]3(O)C[C@H](OC(=O)[C@H](OC(=O)CCC(=O)OC4CCC(S/N=C(N)/N=C(\N)N(C)C)CC4)[C@@H](NC(=O)c4ccccc4)c4ccccc4)C(C)=C1C3(C)C)[C@]1(OC(C)=O)CO[C@@H]1C[C@@H]2O` (stereo partly specified), the GI50 was 0.0219 µM in assay [1]; 0.0101 µM in assay [2]; 0.113 µM in assay [3]; 0.00692 µM in assay [4]; 0.0249 µM in assay [5]; 0.0116 µM in assay [6]. In addition, the GI50 is 0.00847 µM in [7], 0.00631 µM in assay [8], 0.0846 µM in [9] and under 0.0155 µM in [10]. The TGI in assay [1] was over 50 µM; in assay [2], 0.0234 µM; in assay [3], over 50 µM; in assay [4], over 50 µM; in assay [5] it was over 31.4 µM; in [6], 0.0818 µM. Moreover, the TGI in [7] is 0.0255 µM; in assay [8] it was over 50 µM; in assay [9] it was over 50 µM; in [10], over 25.5 µM.

Turning to `Cc1cc(Nc2nc(N3CCOCC3)nc3ccccc23)n[nH]1`, the GI50 was 7.88 µM in assay [1]; 5.5 µM in [2]; 2.12 µM in [3]; 5.14 µM in assay [4]; 15 µM in [5]; 6.19 µM in [6]. Moreover, the GI50 in assay [7] was 4.27 µM; in assay [8], 3.65 µM; in assay [9], 87.7 µM. Further, the TGI in assay [1] is 46.7 µM; in [2], 50.1 µM; in assay [3], 27.1 µM; in assay [4] it was over 100 µM; in assay [5], over 100 µM; in assay [6] it was 74.4 µM. The TGI is 16.6 µM in assay [7], 28.1 µM in assay [8] and over 100 µM in assay [9].

As to `Nc1c(C(=O)Nc2cccc3ccccc23)sc2nc3c(cc12)CCCCC3`, the GI50 was 0.549 µM in assay [1]; 0.202 µM in [2]; 1.9 µM in assay [3]; 0.216 µM in assay [4]; 1.27 µM in [5]; 0.421 µM in assay [6]. The GI50 in [7] is 0.458 µM; in [8], 0.214 µM; in assay [9], 17.1 µM; in assay [10] it was 0.219 µM. In addition, the TGI in [1] is 3.75 µM; in assay [2], 2.87 µM; in assay [3] it was over 50 µM; in assay [4] it was over 50 µM; in assay [5], over 50 µM; in [6], over 50 µM. Further, the TGI in [7], in assay [8], in [9] and in assay [10] was over 50 µM in each case.

As for `Cc1c(N(C(=O)c2cc(-c3cc(Cl)ccc3C(=O)N3Cc4ccccc4C[C@H]3CN3CCOCC3)n(C)c2C)c2ccc(O)cc2)cc(C#N)n1C`, the GI50 is 6.41 µM in [1]; 2.38 µM in assay [2]; 23.8 µM in assay [3]; 10.8 µM in assay [4]; 20.2 µM in [5]; 13.2 µM in assay [6]. The GI50 in assay [7] was 20.6 µM; in assay [8], 6.25 µM; in [9], 20.1 µM; in assay [10], 20.6 µM. Further, the TGI in [1] was 26.5 µM; in assay [2], 29.1 µM; in [3], over 100 µM; in assay [4] it was over 100 µM; in assay [5], over 100 µM; in assay [6] it was over 100 µM. Further, the TGI in assay [7], in [8], in [9] and in assay [10] was over 100 µM each time.

On to `C=C1C(=O)O[C@H]2[C@H]1CC/C(COC(=O)NCCc1c[nH]c3ccccc13)=C\CC[C@@]1(C)O[C@@H]21`, for which the GI50 was 1.27 µM in assay [1]; 0.583 µM in assay [2]; 1.09 µM in [3]; 0.503 µM in assay [4]; 1.48 µM in assay [5]; 9.68 µM in [6]. Further, the GI50 in assay [7] was 1.62 µM; in assay [8], 1.07 µM; in [9] it was 2 µM; in [10] it was 1.47 µM. Moreover, the TGI in assay [1] came to 2.82 µM; in assay [2], 2.86 µM; in [3], 2.9 µM; in assay [4], 10.4 µM; in [5] it was 3.3 µM; in [6] it was 21.4 µM. For the same compound, the TGI in assay [7] came out at 3.29 µM; in assay [8], 7.05 µM; in assay [9], 4.83 µM; in assay [10], 3.2 µM.
